Laboratory results taken from publication PMC9316317, “Reducing the Kidney Uptake of High Contrast CXCR4 PET Imaging Agents via Linker Modifications” (Pharmaceutics, 2022).
Read-outs that look alike come from different tables or passages of the source. Where a SMILES comes first, the peptide text is derived from it. Bridges are numbered along the chain shown (N, C = ends). Side-chain parts run from the residue outwards. [ ]: non-standard residue; d: D form. The star is where a group is joined. DOTA = O=C(O)CN1CCN(CC(=O)O)CCN(CC(=O)*)CCN(CC(=O)O)CC1; 2Nal = N[C@@H](Cc1ccc2ccccc2c1)C(=O)O; Lys(iPr) = CC(C)NCCCC[C@H](N)C(=O)O

How the values were obtained:
[1] = quoted in discussion, approximate; ammonium salt of N-methylpiperidine; carboxylate in aspartate; no reference given; cited from earlier work
Excerpt: The placement of three consecutive charged amino acids may increase the pKa of the neighboring carboxylate due to unfavorable electrostatic repulsions. The sulfonate has a lower pKa than a carboxylate (approximately −1.7 versus 1.9 in aspartate), and as such, may be able to better retain its negative charge, thereby increasing the excretion of the radiotracer from the kidneys. However, there was no difference in LogD7.4 values between [^68Ga]Ga-BL02 and [^68Ga]Ga-BL31. The increased capacity to hold a negative cha ...

[2] = tested on: CXCR4-expressing Daudi xenograft mice; details: mouse, in vivo, iv
Description: (§1) Male NOD.Cg-Rag1tm1Mom Il2rgtm1Wjl/SzJ (NRG) mice were obtained from an in-house breeding colony at the Animal Resource Centre of the BC Cancer Research Centre, Vancouver, Canada. Mice (6–10 weeks old, 25–30 g weight) were subcutaneously inoculated with 5 × 10^6 Daudi cells (100 μL; 1:1 ratio of PBS/Matrigel) on the left flank.
(§2) Additional groups of mice received 7.5 µg (0.25–0.3 mg/kg) LY2510924 as a blocking control i.p. 15 min before radiotracer injection, and euthanized 1 h p.i. Tissues were harvested, washed in PBS, blotted dry, and weighed, and radioactivity was counted on a Hidex AMG Automatic Gamma Counter. The counts were decay corrected, converted to absolute units using a calibration curve, and expressed as percent injected dose per gram of tissue (%ID/g).

in vivo = details: male, NOD.Cg-Rag1tm1Mom Il2rgtm1Wjl/SzJ (NRG), mouse, iv, total radioactivity
Description: as §1, §2

mCXCR4 = tested on: mCXCR4; set-up: method as in PMID 29212254; details: cited from earlier work

CN1CCCCC1 [N-methylpiperidine]
pKa [1]: approximately 10.08

CC(C)NCCCC[C@@H]1NC(=O)[C@H](Cc2ccc(O)cc2)NC(=O)[C@H](Cc2ccccc2)NC(=O)CC[C@H](C(=O)N[C@@H](CCCCNC(C)C)C(=O)N[C@@H](CCCCNC(=O)[C@H](CCC(=O)O)NC(=O)[C@H](CCC(=O)O)NC(=O)[C@H](CCC(=O)O)NC(=O)CN2CCN(CC(=O)O)CCN(CC(=O)O)CCN(CC(=O)O)CC2)C(N)=O)NC(=O)CNC(=O)[C@H](Cc2ccc3ccccc3c2)NC(=O)[C@@H](CCCNC(=N)N)NC1=O [[68Ga]Ga-BL02, metal not drawn] (FY[Lys(iPr)][dR][2Nal]G[dE][Lys(iPr)]K([Glu-Glu-Glu-DOTA])-NH2; lactam N-7 (inferred); C-terminus assumed)
Blood uptake ([2]; 1 h): 0.27 ± 0.06 %ID/g
Liver uptake ([2]; 1 h): 0.57 ± 0.07 %ID/g
Lung uptake ([2]; 1 h): 0.45 ± 0.08 %ID/g
Spleen uptake ([2]; 1 h): 0.47 ± 0.22 %ID/g
Kidney uptake ([2]; 2 h): 3.40 ± 0.51 %ID/g
Liver uptake ([2]; 2 h): 0.54 ± 0.04 %ID/g
Lung uptake ([2]; 2 h): 0.27 ± 0.09 %ID/g
tissue uptake at 1 h (in vivo; Kidney uptake): 3.81 ± 0.86 %ID/g

CC(C)NCCCC[C@@H]1NC(=O)[C@H](Cc2ccc(O)cc2)NC(=O)[C@H](Cc2ccccc2)NC(=O)CC[C@H](C(=O)N[C@@H](CCCCNC(C)C)C(=O)N[C@@H](CCCCNC(=O)[C@@H](CCC(=O)O)NC(=O)[C@@H](CCC(=O)O)NC(=O)[C@@H](CCC(=O)O)NC(=O)CN2CCN(CC(=O)O)CCN(CC(=O)O)CCN(CC(=O)O)CC2)C(N)=O)NC(=O)CNC(=O)[C@H](Cc2ccc3ccccc3c2)NC(=O)[C@@H](CCCNC(=N)N)NC1=O [[68Ga]Ga-BL20, metal not drawn] (FY[Lys(iPr)][dR][2Nal]G[dE][Lys(iPr)]K([dE-dE-dE-DOTA])-NH2; lactam N-7)
tissue uptake at 1 h (in vivo; Tumor uptake (Daudi xenograft)): 0.59 %ID/g

N[C@@H](CC(=O)O)C(=O)O [aspartate]
pKa [1]: ~1.9

LY2510924
decrease in affinity to mCXCR4 as compared to hCXCR4 (mCXCR4): > 1000 fold
